Measurements reported in patent US10392352B2, “Etomidate derivative and intermediate, preparation method and use thereof” (JIANGSU NHWALUOKANG PHARMACEUTICAL RESEARCH AND DEVELOPMENT …, priority 2015, dated 2019).

How the values were obtained:
[1] = Test of ED50 and LD50 of anesthesia in mice (sequential method; disappearance of righting reflex or death); type: in vivo; settings: mouse, in vivo; male KM mice, caudal vein injection over 10 s, death, n = 10-20; range in brackets
Method: (§1) Test of ED50 and LD50 of the etomidate derivative of the present invention in mice
(§2) Accurately weighed compounds 14, 15, 16 and 18 (5 mg for each of the compounds) were placed in 10 ml centrifuge tubes, respectively. Then 1 ml blank emulsion (20% soybean oil blank emulsion) was added to each tube, and the mixture was sonicated in an ultrasonic apparatus for several minutes to obtain a 5 mg/ml homogeneous emulsion, which was drawn by an injection syringe right before use. An etomidate fat emulsion injection (commercially available, 2 mg/ml) was used as control. The administration concentration in mice was fixed, and the administration volume varied according to actual situation.
(§3) ED50 and LD50 values concerning anesthesia were determined using a sequential method. Administrations in this test were performed on qualified healthy KM mice (male) by injection at a constant rate via caudal vein for 10 seconds. Before the test, a preliminary trial test was conducted to determine an approximate dosage (administration volume) that leads to anesthetization (or death) in animals, which was then set as the intermediate dosage in the formal test. 2-3 Dosage groups were set above and below the intermediate dosage group with an interval of 0.8. The disappearance of righting reflex or death was used as indicators of pharmacological efficacy or toxicity, respectively. The formal test began with the administration of the intermediate dosage. If animals were anesthetized, a lower dosage was administered; otherwise if animals were not anesthetized, a higher dosage was administered, until the cycle was repeated for 3-4 times. LD50 and ED50 values of anesthesia were calculated by a sequential method on aot425 software. TI was calculated according to the following equation: TI=LD50/ED50.

[2] = test system: KM mice (male); test: as above; type: in vivo; settings: for ED50: Mus musculus; for TI: TI=LD50/ED50, mice
Method: as §1, §2, §3

[3] = test system: Male Kunming mice; test: Test for latent period and persistent period of anesthesia in mice; type: in vivo; settings: 6 mg/kg (3*ED50), caudal vein, n = 5; for Latent period: time for disappearance of righting reflex; for Persistent period: time for recovery
Method: Test of the etomidate derivative of the present invention for latent period and persistent period of anesthesia in mice
Male Kunming mice were divided into groups, 5 for each group. The test drug was administered by injection at a constant rate via caudal vein for 10 seconds. The time for disappearance of righting reflex (latent period) and the time for recovery (persistent period) were recorded.

[4] = test system: mice; test: Influence on the blood pressure and followed-up reactions after recovery in mice anesthesia test; type: in vivo; settings: for tail bleeding: few / tail bleeding: much / tail bleeding: none / tremor / grooming: after administration & before anesthesia
[5] = molecular target: T1, 11β-hydroxylase (Homo sapiens, UniProt P15538); settings: background statement; cited from earlier work
T1 sequence (P15538 25-503): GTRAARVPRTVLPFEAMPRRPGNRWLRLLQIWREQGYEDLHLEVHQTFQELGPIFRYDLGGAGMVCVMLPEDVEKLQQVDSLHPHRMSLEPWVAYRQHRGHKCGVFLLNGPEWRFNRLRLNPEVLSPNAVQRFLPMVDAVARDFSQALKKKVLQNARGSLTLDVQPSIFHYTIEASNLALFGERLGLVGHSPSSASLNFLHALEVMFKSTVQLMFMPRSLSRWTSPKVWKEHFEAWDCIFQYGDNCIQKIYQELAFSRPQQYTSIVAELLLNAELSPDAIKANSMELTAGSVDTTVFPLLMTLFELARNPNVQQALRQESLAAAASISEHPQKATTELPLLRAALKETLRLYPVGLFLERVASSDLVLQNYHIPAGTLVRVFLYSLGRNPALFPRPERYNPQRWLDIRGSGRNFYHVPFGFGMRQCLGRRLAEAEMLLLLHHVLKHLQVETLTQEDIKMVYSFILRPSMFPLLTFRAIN

[6] = test system: secretion of cortisol and/or corticosterone; settings: background, literature; cited from earlier work
[7] = background, literature; cited from earlier work

Row | SMILES | LD50 [1] [mg/kg] | ED50 [2] [mg/kg] | TI [2] | Walking time [3] [s] | Latent period [3] [s] | Persistent period [3] [s] | tail bleeding: few [4] [%] | tail bleeding: much [4] [%] | tail bleeding: none [4] [%] | tremor [4] [%] | quiet ([4]; post-recovery) [%] | grooming [4] [%] | jump ([4]; post-recovery) [%] | convulsion ([4]; post-recovery) [%] | inhibitory effect on 11β-hydroxylase [5] | inhibitory effect on the secretion of cortisol and/or corticosterone [6] | anesthetic effect / activity [7] | duration of action [7]
1 | COC(=O)c1c(F)ncn1[C@H](C)c1ccccc1 [Compound 15, methyl R-1-(1-phenethyl)-1H-4-fluoroimidazole-5-carboxylate] | 48.4 | 2 | 24 | 68.80 ± 30.10 | 5.90 ± 0.88 | 83.60 ± 29.13 | 50 | 40 | 10 | 70 | 100 | – | – | – | – | – | – | –
2 | CCOC(=O)c1c(F)ncn1[C@H](C)c1ccccc1 [Compound 16, ethyl R-1-(1-phenethyl)-1H-4-fluoroimidazole-5-carboxylate] | 46.5 | 2 | 23 | 98.10 ± 63.96 | 5.80 ± 0.79 | 82.10 ± 20.18 | 60 | 30 | 10 | 70 | 80 | 10 | 20 | – | – | – | – | –
3 | CCOC(=O)c1cncn1[C@H](C)c1ccccc1 [Etomidate, ethyl R-(+)-1-(1-phenethyl)-1H-imidazole-5-carboxylate] | 50.3 | 2 | 25 | 156.30 ± 120.78 | 5.40 ± 0.52 | 175.50 ± 100.09 | 50 | 10 | 40 | 80 | 50 | 20 | 40 | 10 | inhibitory effect | reduce the secretion | – | –
4 | COC(=O)CCOC(=O)c1cncn1[C@H](C)c1ccccc1 [Formula 7, Methoxycarbonyl-etomidate] | – | – | – | – | – | – | – | – | – | – | – | – | – | – | – | lower inhibitory effect | drastically decreased anesthetic effect | –
5 | CCOC(=O)c1cccn1[C@H](C)c1ccccc1 [Formula 8] | – | – | – | – | – | – | – | – | – | – | – | – | – | – | – | little inhibition | decreased anesthetic activity | prolonged duration of action
